#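 Protocol summary: plate cells (96-well), add compound at 5 concentrations, incubate 48 h, interpolate endpoints linearly. GI50 is the concentration that inhibits growth by half. TGI marks complete inhibition of growth.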
# Experiments:
# Experiment in all cases: DTP human tumour cell line panel, 48 h
# 786-0 renal = tested on: 786-0 renal
# A549 NSCLC = tested on: A549 NSCLC
# ACHN renal = tested on: ACHN renal
# BT-549 breast = tested on: BT-549 breast
# CAKI-1 renal = tested on: CAKI-1 renal
# CCRF-CEM leukemia = tested on: CCRF-CEM leukemia
# COLO 205 colon = tested on: COLO 205 colon
# DU-145 prostate = tested on: DU-145 prostate
# EKVX NSCLC = tested on: EKVX NSCLC
# HCC-2998 colon = tested on: HCC-2998 colon
# HCT-116 colon = tested on: HCT-116 colon
# HCT-15 colon = tested on: HCT-15 colon
# HL-60(TB) leukemia = tested on: HL-60(TB) leukemia
# HOP-62 NSCLC = tested on: HOP-62 NSCLC
# HOP-92 NSCLC = tested on: HOP-92 NSCLC
# HS 578T breast = tested on: HS 578T breast
# HT29 colon = tested on: HT29 colon
# IGROV1 ovarian = tested on: IGROV1 ovarian
# K-562 leukemia = tested on: K-562 leukemia
# KM12 colon = tested on: KM12 colon
# LOX IMVI melanoma = tested on: LOX IMVI melanoma
# M14 melanoma = tested on: M14 melanoma
# MALME-3M melanoma = tested on: MALME-3M melanoma
# MCF7 breast = tested on: MCF7 breast
# MDA-MB-231 breast = tested on: MDA-MB-231 breast
# MDA-MB-435 = tested on: MDA-MB-435
# MOLT-4 leukemia = tested on: MOLT-4 leukemia
# NCI-H226 lung = tested on: NCI-H226 lung
# NCI-H23 lung = tested on: NCI-H23 lung
# NCI-H460 lung = tested on: NCI-H460 lung
# NCI-H522 lung = tested on: NCI-H522 lung
# NCI/ADR-RES ovarian = tested on: NCI/ADR-RES ovarian
# OVCAR-3 ovarian = tested on: OVCAR-3 ovarian
# OVCAR-4 ovarian = tested on: OVCAR-4 ovarian
# OVCAR-5 ovarian = tested on: OVCAR-5 ovarian
# OVCAR-8 ovarian = tested on: OVCAR-8 ovarian
# PC-3 prostate = tested on: PC-3 prostate
# RPMI-8226 leukemia = tested on: RPMI-8226 leukemia
# RXF 393 renal = tested on: RXF 393 renal
# SF-268 CNS = tested on: SF-268 CNS
# SF-295 CNS = tested on: SF-295 CNS
# SF-539 CNS = tested on: SF-539 CNS
# SK-MEL-2 melanoma = tested on: SK-MEL-2 melanoma
# SK-MEL-28 melanoma = tested on: SK-MEL-28 melanoma
# SK-MEL-5 melanoma = tested on: SK-MEL-5 melanoma
# SK-OV-3 ovarian = tested on: SK-OV-3 ovarian
# SN12C renal = tested on: SN12C renal
# SNB-19 CNS = tested on: SNB-19 CNS
# SNB-75 CNS = tested on: SNB-75 CNS
# SR leukemia = tested on: SR leukemia
# SW-620 colon = tested on: SW-620 colon
# T-47D breast = tested on: T-47D breast
# TK-10 renal = tested on: TK-10 renal
# U251 CNS = tested on: U251 CNS
# UACC-257 melanoma = tested on: UACC-257 melanoma
# UACC-62 melanoma = tested on: UACC-62 melanoma
# UO-31 renal = tested on: UO-31 renal
smiles,measurement,setting,value
COC1[C@@H]2C[C@H]3C(C)(C)O[C@@](C/C=C(/C)C(=O)O)(C2=O)[C@]32Oc3c(CC=C(C)C)c4c(c(O)c3C(=O)[C@H]12)C=CC(C)(C)O4 (some centres undefined),GI50,786-0 renal,2.49 µM
same,TGI,786-0 renal,5.97 µM
same,GI50,A549 NSCLC,19.7 µM
same,TGI,A549 NSCLC,49.9 µM
same,GI50,ACHN renal,4.91 µM
same,TGI,ACHN renal,18.4 µM
same,GI50,BT-549 breast,2.47 µM
same,TGI,BT-549 breast,7.1 µM
same,GI50,CAKI-1 renal,16.5 µM
same,TGI,CAKI-1 renal,33.1 µM
same,GI50,CCRF-CEM leukemia,3.73 µM
same,TGI,CCRF-CEM leukemia,53.1 µM
same,GI50,COLO 205 colon,17.2 µM
same,TGI,COLO 205 colon,40.7 µM
same,GI50,DU-145 prostate,13.2 µM
same,TGI,DU-145 prostate,26.1 µM
same,GI50,EKVX NSCLC,10.3 µM
same,TGI,EKVX NSCLC,28.9 µM
same,GI50,HCC-2998 colon,16.8 µM
same,TGI,HCC-2998 colon,34.4 µM
same,GI50,HCT-116 colon,3.07 µM
same,TGI,HCT-116 colon,9.71 µM
same,GI50,HCT-15 colon,2.97 µM
same,TGI,HCT-15 colon,13.5 µM
same,GI50,HL-60(TB) leukemia,1.53 µM
same,TGI,HL-60(TB) leukemia,4.99 µM
same,GI50,HOP-62 NSCLC,16.3 µM
same,TGI,HOP-62 NSCLC,32.4 µM
same,GI50,HOP-92 NSCLC,10.1 µM
same,TGI,HOP-92 NSCLC,25.9 µM
same,GI50,HS 578T breast,9.58 µM
same,TGI,HS 578T breast,78 µM
same,GI50,HT29 colon,10.2 µM
same,TGI,HT29 colon,28.8 µM
same,GI50,IGROV1 ovarian,3.27 µM
same,TGI,IGROV1 ovarian,10.7 µM
same,GI50,K-562 leukemia,3.92 µM
same,TGI,K-562 leukemia,31.4 µM
same,GI50,KM12 colon,14.5 µM
same,TGI,KM12 colon,31.1 µM
same,GI50,LOX IMVI melanoma,2.15 µM
same,TGI,LOX IMVI melanoma,5.31 µM
same,GI50,M14 melanoma,6.57 µM
same,TGI,M14 melanoma,24.4 µM
same,GI50,MALME-3M melanoma,14.2 µM
same,TGI,MALME-3M melanoma,29.5 µM
same,GI50,MCF7 breast,3.22 µM
same,TGI,MCF7 breast,19.1 µM
same,GI50,MDA-MB-231 breast,6.56 µM
same,TGI,MDA-MB-231 breast,27.6 µM
same,GI50,MDA-MB-435,11.6 µM
same,TGI,MDA-MB-435,27.8 µM
same,GI50,MOLT-4 leukemia,3.61 µM
same,TGI,MOLT-4 leukemia,36.8 µM
same,GI50,NCI-H226 lung,18.9 µM
same,TGI,NCI-H226 lung,44.8 µM
same,GI50,NCI-H23 lung,16.4 µM
same,TGI,NCI-H23 lung,50.6 µM
same,GI50,NCI-H460 lung,8.15 µM
same,TGI,NCI-H460 lung,25.8 µM
same,GI50,NCI-H522 lung,15.3 µM
same,TGI,NCI-H522 lung,32.3 µM
same,GI50,NCI/ADR-RES ovarian,15.2 µM
same,TGI,NCI/ADR-RES ovarian,> 100 µM
same,GI50,OVCAR-3 ovarian,3.77 µM
same,TGI,OVCAR-3 ovarian,14.9 µM
same,GI50,OVCAR-4 ovarian,12.1 µM
same,TGI,OVCAR-4 ovarian,29.9 µM
same,GI50,OVCAR-5 ovarian,20.1 µM
same,TGI,OVCAR-5 ovarian,41.7 µM
same,GI50,OVCAR-8 ovarian,6.82 µM
same,TGI,OVCAR-8 ovarian,29.5 µM
same,GI50,PC-3 prostate,6.03 µM
same,TGI,PC-3 prostate,22.2 µM
same,GI50,RPMI-8226 leukemia,2.56 µM
same,TGI,RPMI-8226 leukemia,8.1 µM
same,GI50,RXF 393 renal,4.54 µM
same,TGI,RXF 393 renal,18.2 µM
same,GI50,SF-268 CNS,12.8 µM
same,TGI,SF-268 CNS,31.7 µM
same,GI50,SF-295 CNS,15.3 µM
same,TGI,SF-295 CNS,34.8 µM
same,GI50,SF-539 CNS,14.3 µM
same,TGI,SF-539 CNS,28.5 µM
same,GI50,SK-MEL-2 melanoma,19 µM
same,TGI,SK-MEL-2 melanoma,42.1 µM
same,GI50,SK-MEL-28 melanoma,11.9 µM
same,TGI,SK-MEL-28 melanoma,26.6 µM
same,GI50,SK-MEL-5 melanoma,12.5 µM
same,TGI,SK-MEL-5 melanoma,25.9 µM
same,GI50,SK-OV-3 ovarian,23.4 µM
same,TGI,SK-OV-3 ovarian,53.4 µM
same,GI50,SN12C renal,6.85 µM
same,TGI,SN12C renal,29.7 µM
same,GI50,SNB-19 CNS,15.6 µM
same,TGI,SNB-19 CNS,30.7 µM
same,GI50,SNB-75 CNS,19.2 µM
same,TGI,SNB-75 CNS,54.3 µM
same,GI50,SR leukemia,2.43 µM
same,TGI,SR leukemia,> 100 µM
same,GI50,SW-620 colon,3.05 µM
same,TGI,SW-620 colon,10.8 µM
same,GI50,T-47D breast,3.14 µM
same,TGI,T-47D breast,17.6 µM
same,GI50,TK-10 renal,18.8 µM
same,TGI,TK-10 renal,33.5 µM
same,GI50,U251 CNS,4.35 µM
same,TGI,U251 CNS,16.1 µM
same,GI50,UACC-257 melanoma,14.7 µM
same,TGI,UACC-257 melanoma,35.8 µM
same,GI50,UACC-62 melanoma,13.2 µM
same,TGI,UACC-62 melanoma,29.4 µM
same,GI50,UO-31 renal,6.73 µM
same,TGI,UO-31 renal,21.3 µM
